Laboratory results taken from the supplement of paper PMC10307832.

Columns and labels:
Test in all cases: relative viability (nuclei count vs DMSO), 5 days (fraction); higher = more cells survive
Sorafenib + Vorinostat = compound: CNC(=O)c1cc(Oc2ccc(NC(=O)Nc3ccc(Cl)c(C(F)(F)F)c3)cc2)ccn1 [Sorafenib] + O=C(CCCCCCC(=O)Nc1ccccc1)NO [Vorinostat] (partner 1 µM)
In short: (§1)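 Lung cancer cell lines, seeded in 1536-well plates, were treated the following day by pin tool with a single drug or with five library-drug doses (not always all listed) in √10 steps on top of a fixed anchor-drug dose. Cells were fixed and nuclei stained in one step after 5 days, and nuclei were counted. Relative viability is the nuclei count for treated wells divided by that for vehicle wells, reported as medians of duplicate plates.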

Sorafenib + Linsitinib = compound: CNC(=O)c1cc(Oc2ccc(NC(=O)Nc3ccc(Cl)c(C(F)(F)F)c3)cc2)ccn1 [Sorafenib] + C[C@]1(O)C[C@@H](c2nc(-c3ccc4ccc(-c5ccccc5)nc4c3)c3c(N)nccn32)C1 [Linsitinib] (partner 1 µM)
In short: as §1

Sorafenib + Tozasertib = compound: CNC(=O)c1cc(Oc2ccc(NC(=O)Nc3ccc(Cl)c(C(F)(F)F)c3)cc2)ccn1 [Sorafenib] + Cc1cc(Nc2cc(N3CCN(C)CC3)nc(Sc3ccc(NC(=O)C4CC4)cc3)n2)n[nH]1 [Tozasertib] (partner 0.1 µM)
In short: as §1

Sorafenib + Crizotinib = compound: CNC(=O)c1cc(Oc2ccc(NC(=O)Nc3ccc(Cl)c(C(F)(F)F)c3)cc2)ccn1 [Sorafenib] + C[C@@H](Oc1cc(-c2cnn(C3CCNCC3)c2)cnc1N)c1c(Cl)ccc(F)c1Cl [Crizotinib] (partner 1 µM)
In short: as §1

Sorafenib + AZD7762 = compound: CNC(=O)c1cc(Oc2ccc(NC(=O)Nc3ccc(Cl)c(C(F)(F)F)c3)cc2)ccn1 [Sorafenib] + NC(=O)Nc1cc(-c2cccc(F)c2)sc1C(=O)N[C@H]1CCCNC1 [AZD7762] (partner 0.2 µM)
In short: as §1

Cell Line | relative viability (Sorafenib + Vorinostat; first compound 0.08 µM) | relative viability (Sorafenib + Vorinostat; first compound 0.253 µM) | relative viability (Sorafenib + Vorinostat; first compound 2.53 µM) | relative viability (Sorafenib + Vorinostat; first compound 8 µM) | relative viability (Sorafenib + Linsitinib; first compound 0.08 µM) | relative viability (Sorafenib + Linsitinib; first compound 0.253 µM) | relative viability (Sorafenib + Linsitinib; first compound 2.53 µM) | relative viability (Sorafenib + Linsitinib; first compound 8 µM) | relative viability (Sorafenib + Tozasertib; first compound 0.08 µM) | relative viability (Sorafenib + Tozasertib; first compound 0.253 µM) | relative viability (Sorafenib + Tozasertib; first compound 2.53 µM) | relative viability (Sorafenib + Crizotinib; first compound 0.08 µM) | relative viability (Sorafenib + Crizotinib; first compound 0.253 µM) | relative viability (Sorafenib + Crizotinib; first compound 2.53 µM) | relative viability (Sorafenib + Crizotinib; first compound 8 µM) | relative viability (Sorafenib + AZD7762; first compound 0.08 µM) | relative viability (Sorafenib + AZD7762; first compound 0.253 µM) | relative viability (Sorafenib + AZD7762; first compound 2.53 µM) | relative viability (Sorafenib + AZD7762; first compound 8 µM) | relative viability (Sorafenib + Tozasertib; first compound 8 µM)
NCI-H2085 | 0.852 | 0.795 | 1.01 | 0.78 | 0.962 | 0.924 | 1.07 | 0.728 | 0.849 | 0.833 | 0.611 | 0.938 | 1.01 | 0.965 | 0.717 | 1.04 | 0.874 | 1.03 | 0.604 | –
NCI-H2087 | 0.615 | 0.545 | 0.474 | 0.209 | 0.756 | 0.853 | 0.956 | 0.275 | 0.26 | 0.241 | 0.212 | 0.83 | 0.746 | 0.784 | 0.308 | 1.39 | 1.08 | 1.02 | 0.264 | 0.152
NCI-H2126 | 0.88 | 0.747 | 0.828 | 0.799 | 0.754 | 0.706 | 0.745 | – | 0.93 | 0.842 | 0.866 | 0.998 | 0.984 | 1.09 | 0.962 | 1.01 | 1.01 | 1.07 | 0.982 | –
NCI-H2347 | 0.694 | 0.543 | 0.524 | 0.52 | – | 0.921 | 0.973 | 0.999 | 0.646 | 0.599 | 0.509 | 0.796 | 0.559 | 0.491 | 0.525 | 0.784 | 0.664 | 0.636 | 0.47 | 0.426
NCI-H2405 | 1.09 | 0.801 | 1.09 | 0.706 | 1.1 | 0.907 | 0.715 | 0.502 | 0.819 | 0.743 | 0.751 | 0.884 | 0.767 | – | 0.76 | 0.819 | 0.597 | 0.681 | 0.63 | 0.613
NCI-H3122 | 1.03 | 0.932 | – | 0.846 | 1.06 | 1.02 | 1.01 | 0.828 | 0.44 | 0.363 | 0.363 | 0.29 | 0.317 | 0.326 | 0.293 | 0.905 | 0.905 | 1.08 | 0.965 | 0.301
PC-3 [JPC-3] | 0.886 | 0.555 | 1.1 | 0.883 | 0.951 | 0.981 | 1.01 | 0.949 | 0.879 | 0.846 | 0.881 | 0.978 | 0.957 | 0.985 | – | 0.929 | 0.711 | 1.07 | 0.948 | 0.823
PC-14 | 0.833 | 0.721 | 0.641 | 0.481 | 1.03 | 0.96 | 0.918 | 0.756 | 0.588 | 0.555 | 0.593 | 0.935 | 1 | 0.967 | 0.533 | 0.365 | 0.256 | 0.444 | 0.303 | 0.577
RERF-LC-KJ | 0.723 | 0.608 | 0.738 | 0.665 | 0.873 | 0.872 | 0.798 | 0.739 | 0.532 | 0.489 | 0.41 | 0.885 | 0.798 | 0.856 | 0.768 | 1.09 | 0.781 | 0.941 | 0.897 | 0.221
